Structures can show the parent of a compound that is named as a salt. Where two headings read alike, the source gives them in different places.
Columns and labels:
[1] = test system: IL-1β cytokine output from THP-1s; test: THP-1 AlphaLISA IL-1β cytokine inhibition assay; assay type: cell-based; settings: Homo sapiens
Summary of the method: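 THP-1 cells differentiated with PMA for 72 h, pre-incubated with compound 30 min, then LPS-primed 24 h and Nigericin-stimulated 1 h (37° C./5% CO2). Supernatant IL-1β measured by AlphaLISA; percentage inhibition normalised to +LPS (high) and −LPS (low) plate controls.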

[2] = Hepatocyte stability assay, human; assay type: in vitro ADME; settings: human, hepatocytes; for hepatocyte CLint at 10 μM: Hepatocyte stability Clint; for half-life at 10 μM: Hepatocyte stability T½
Summary of the method: (§1)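 Cells and buffer-only plates are preincubated 10 min at 37° C; 10 μM test compound is then added to hepatocytes (0.5×10^6 cells/mL) and sampled to 60 min. Aliquots are crashed into acetonitrile, spun, and measured by LC-MS/MS to calculate intrinsic clearance from the decline of parent.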

[3] = Hepatocyte stability assay, mouse; assay type: in vitro ADME; settings: mouse, hepatocytes; for hepatocyte CLint at 10 μM: Hepatocyte stability Clint; for half-life at 10 μM: Hepatocyte stability T½
Summary of the method: as §1

[4] = test system: NRF2 (nuclear factor erythroid 2-related factor 2); test: NRF2 +/-GSH activation assay (DiscoverX PathHunter NRF2 translocation kit, U2OS cells); assay type: cell-based; settings: for NRF2 activation +GSH Emax / NRF2 activation −GSH Emax / −GSH Emax: normalised to DMF high control
Summary of the method: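 U2OS PathHunter eXpress cells, 24 h post-plating, treated with compound ±GSH (+GSH arm: 30 min compound–GSH pre-incubation, 6 mM working GSH), then 6 h at 37 °C. NRF2 nuclear translocation read by enzyme-fragment-complementation chemiluminescence; % activation normalised to DMF high and untreated low controls.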

[5] = test system: IL-6 cytokine output from THP-1s; test: THP-1 AlphaLISA IL-6 cytokine inhibition assay; assay type: cell-based; settings: Homo sapiens, LPS then nigericin
Summary of the method: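 THP-1 cells differentiated with PMA for 72 h, then pre-incubated with compound 30 min, stimulated with LPS 24 h, then Nigericin 1 h, all at 37° C. Supernatant IL-6 measured by AlphaLISA. Percentage inhibition normalized to +/− LPS plate controls.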

[6] = THP-1, differentiated THP-1 cells, LPS then nigericin
[7] = +GSH, 30 minute compound-GSH pre-incubation, read-out: NRF2 activation +GSH EC50
[8] = −GSH, U2OS PathHunter cells, 6 hours compound treatment, read-out: NRF2 activation −GSH EC50
[9] = THP-1, differentiated THP-1 cells
[10] = THP-1, Table 3, head to head comparison of exo vs endo double bond compounds
[11] = −GSH, Table 5 exo vs endo comparison, read-out: −GSH EC50
[12] = −GSH, Table 5 exo vs endo comparison

| SMILES | IC50 [1, 6] | hepatocyte CLint at 10 μM [2] | half-life at 10 μM [2] | hepatocyte CLint at 10 μM [3] | half-life at 10 μM [3] | EC50 [4, 7] | NRF2 activation +GSH Emax ([4]; +GSH) | EC50 [4, 8] | NRF2 activation −GSH Emax ([4]; −GSH) | IC50 [5, 9] | IC50 [1, 10] | EC50 [4, 11] | −GSH Emax [4, 12] | IC50 ([5]; differentiated THP-1 cells) |
| --- | --- | --- | --- | --- | --- | --- | --- | --- | --- | --- | --- | --- | --- | --- |
| C=C(Cc1cc(CCCCCCCC)ccn1)C(=O)O [Example 104, 2-((4-octylpyridin-2-yl)methyl)acrylic acid trifluoroacetic acid salt] | 11.6 µM | 370 µL/min/1e6 cells | 3 min | > 460 µL/min/1e6 cells | < 3 min | 8.2 µM | 216% | 7.5 µM | 293% | 2.1 µM | – | – | – | – |
| C=C(Cc1nc(C2(c3ccc(Cl)cc3)CC2)no1)C(=O)O [Example 10, 2-((3-(1-(4-chlorophenyl)cyclopropyl)-1,2,4-oxadiazol-5-yl)methyl)acrylic acid] | 10 µM | 27 µL/min/1e6 cells | 47 min | 125 µL/min/1e6 cells | 8 min | 45.2 µM | 53% | 36.8 µM | 67% | 26.2 µM | – | – | – | – |
| C=C(Cc1nc(-c2ccc(C3(CCC)CC3)cc2)no1)C(=O)O [Example 72, 2-((3-(4-(1-propylcyclopropyl)phenyl)-1,2,4-oxadiazol-5-yl)methyl)acrylic acid] | 7 µM | 69 µL/min/1e6 cells | 27 min | 28 µL/min/1e6 cells | 43 min | 19.5 µM | 151% | 14.6 µM | 189% | 4.4 µM | – | – | – | – |
| C=C(Cc1nc(C2(c3ccc(Cl)c(F)c3)CC2)no1)C(=O)O [Example 52, 2-((3-(1-(4-chloro-3-fluorophenyl)cyclopropyl)-1,2,4-oxadiazol-5-yl)methyl)acrylic acid] | 19.4 µM | 24 µL/min/1e6 cells | 55 min | 134 µL/min/1e6 cells | 10 min | > 100 µM | 40% | 15.2 µM | 78% | 25.5 µM | – | – | – | – |
| C=C(Cc1nc(C2(c3ccc(SC(F)(F)F)cc3)CC2)no1)C(=O)O [Example 86, 2-((3-(1-(4-((trifluoromethyl)thio)phenyl)cyclopropyl)-1,2,4-oxadiazol-5-yl)methyl)acrylic acid] | 8.4 µM | 7 µL/min/1e6 cells | 235 min | 17 µL/min/1e6 cells | 103 min | 35 µM | 221% | 18 µM | 320% | 9.4 µM | 8.4 µM | 18 µM | 320% | – |
| C=C(Cc1nc([C@H](C)CCCCCC)no1)C(=O)O [Example 40, (R)-2-((3-(octan-2-yl)-1,2,4-oxadiazol-5-yl)methyl)acrylic acid] | 27 µM | 21 µL/min/1e6 cells | 66 min | 82 µL/min/1e6 cells | 20 min | 27.5 µM | 81% | 25.3 µM | 168% | 18.1 µM | – | – | – | – |
| C=C(Cc1ncc(CCCCCCCC)o1)C(=O)O [Example 59, 2-((5-octyloxazol-2-yl)methyl)acrylic acid] | 6.9 µM | > 460 µL/min/1e6 cells | < 3 min | > 460 µL/min/1e6 cells | < 3 min | 5.4 µM | 136% | 3.9 µM | 213% | – | – | – | – | 7.2 µM |
| C=C(Cc1nc(C2(c3ccc(S(F)(F)(F)(F)F)cc3)CC2)no1)C(=O)O [Example 77, 2-((3-(1-(4-(pentafluoro-λ^6-sulfaneyl)phenyl)cyclopropyl)-1,2,4-oxadiazol-5-yl)methyl)acrylic acid] | 7.6 µM | < 3 µL/min/1e6 cells | > 460 min | 10 µL/min/1e6 cells | 189 min | 52.7 µM | 69% | 48.1 µM | 210% | 14.6 µM | 7.6 µM | 48.1 µM | 210% | – |
| C=C(Cc1nc(CCCCCCCCC)no1)C(=O)O [Example 53, 2-((3-nonyl-1,2,4-oxadiazol-5-yl)methyl)acrylic acid] | 1.8 µM | 329 µL/min/1e6 cells | 4 min | > 460 µL/min/1e6 cells | < 3 min | 1.8 µM | 71% | 1.8 µM | 178% | 2.6 µM | – | – | – | – |
| C=C(Cc1nc(CCCCCCCCCCC)no1)C(=O)O [Example 56, 2-((3-undecyl-1,2,4-oxadiazol-5-yl)methyl)acrylic acid] | 3.4 µM | > 460 µL/min/1e6 cells | < 3 min | > 460 µL/min/1e6 cells | < 3 min | 3.1 µM | 110% | 2.8 µM | 175% | 3.3 µM | – | – | – | – |
| C=C(Cc1noc(C(F)(F)CCCCCCC)n1)C(=O)O [Example 83, 2-((5-(1,1-difluorooctyl)-1,2,4-oxadiazol-3-yl)methyl)acrylic acid] | 3.1 µM | 263 µL/min/1e6 cells | 5 min | > 460 µL/min/1e6 cells | < 3 min | 3.8 µM | 161% | 3 µM | 185% | 3.4 µM | – | – | – | – |
| C=C(C(=O)O)C(O)c1nc(CCCCCCCC)no1 (centres unmarked) [Example 108, 2-(hydroxy(3-octyl-1,2,4-oxadiazol-5-yl)methyl)acrylic acid] | 18.4 µM | 10 µL/min/1e6 cells | 163 min | 438 µL/min/1e6 cells | 4 min | 29 µM | 213% | 19.7 µM | 299% | 8.3 µM | – | – | – | – |
| C=C(Cc1nc(C(F)(F)c2ccc(CCCC)cc2)no1)C(=O)O [Example 91, 2-((3-((4-butylphenyl)difluoromethyl)-1,2,4-oxadiazol-5-yl)methyl)acrylic acid] | 3.8 µM | 74 µL/min/1e6 cells | 21 min | 320 µL/min/1e6 cells | 6 min | 3.4 µM | 190% | 3.2 µM | 231% | – | – | – | – | 2.4 µM |
| C=C(Cc1nc(CCCCCCCCC(F)(F)F)no1)C(=O)O [Example 60, 2-((3-(9,9,9-trifluorononyl)-1,2,4-oxadiazol-5-yl)methyl)acrylic acid] | 11.2 µM | 137 µL/min/1e6 cells | 11 min | 257 µL/min/1e6 cells | 6 min | 9 µM | 110% | 8.4 µM | 195% | 6 µM | – | – | – | – |
| C=C(Cc1nc(Cc2ccc(OCCCC)cc2)no1)C(=O)O [Example 51, 2-((3-(4-butoxybenzyl)-1,2,4-oxadiazol-5-yl)methyl)acrylic acid] | 53.4 µM | 24 µL/min/1e6 cells | 55 min | 278 µL/min/1e6 cells | 5 min | 6.7 µM | 181% | 4.6 µM | 269% | 5.3 µM | – | – | – | – |
| C=C(Cc1nc(C(F)(F)CCCCCCC)no1)C(=O)O [Example 88, 2-((3-(1,1-difluorooctyl)-1,2,4-oxadiazol-5-yl)methyl)acrylic acid] | 3.1 µM | 134 µL/min/1e6 cells | 12 min | > 460 µL/min/1e6 cells | < 3 min | 3 µM | 205% | 2.8 µM | 237% | 2.8 µM | – | – | – | – |
| C=C(Cc1nc(C(F)(F)c2ccc(Cl)cc2)no1)C(=O)O [Example 74, 2-((3-((4-chlorophenyl)difluoromethyl)-1,2,4-oxadiazol-5-yl)methyl)acrylic acid] | 6.4 µM | < 3 µL/min/1e6 cells | > 430 min | 31 µL/min/1e6 cells | 47 min | 44.4 µM | 65% | 24.4 µM | 174% | 9 µM | – | – | – | – |
